Measured values as given in PMC9261792 (Journal of Food and Drug Analysis, 2021).

Molecular target: T1, hSGLT1 (Homo sapiens, UniProt P13866)
T1 sequence (P13866 1-664): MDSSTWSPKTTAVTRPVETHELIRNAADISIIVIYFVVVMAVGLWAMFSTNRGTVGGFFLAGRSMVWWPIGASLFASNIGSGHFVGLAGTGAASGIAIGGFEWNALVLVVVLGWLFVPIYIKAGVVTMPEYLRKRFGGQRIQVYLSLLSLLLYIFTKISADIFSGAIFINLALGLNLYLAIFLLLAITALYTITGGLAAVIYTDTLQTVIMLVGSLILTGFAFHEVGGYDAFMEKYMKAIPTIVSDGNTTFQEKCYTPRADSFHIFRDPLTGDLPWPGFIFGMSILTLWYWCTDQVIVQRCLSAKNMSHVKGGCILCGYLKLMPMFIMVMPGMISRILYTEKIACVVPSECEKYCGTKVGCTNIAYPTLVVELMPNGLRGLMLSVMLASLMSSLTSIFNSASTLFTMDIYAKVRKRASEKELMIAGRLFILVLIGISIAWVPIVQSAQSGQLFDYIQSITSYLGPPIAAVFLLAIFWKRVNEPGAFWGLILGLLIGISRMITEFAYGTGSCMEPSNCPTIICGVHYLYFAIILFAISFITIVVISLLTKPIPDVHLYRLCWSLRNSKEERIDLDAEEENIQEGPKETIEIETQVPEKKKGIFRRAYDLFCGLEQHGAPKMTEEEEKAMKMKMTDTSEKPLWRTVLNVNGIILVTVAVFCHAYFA
Test: 1-NBDG uptake inhibition in COS-7 cells expressing hSGLT1, single dose […]
Assay type: cell-based
Conditions: COS-7, read-out: % Uptake via / hSGLT1

O=C(/C=C/c1ccc(O)cc1)OC[C@H]1O[C@@H](Oc2c(-c3ccc(O)cc3)oc3cc(O)cc(O)c3c2=O)[C@H](O)[C@@H](O)[C@@H]1O [compound 15, Tiliroside]
activity at 50 µM: 33.1 ± 0.85%
